Measurements taken from the supplement of paper PMC10733146.

Experiments:
Test in all cases: viability relative to DMSO control (fraction); higher = less drug effect (more viable cells)
Details in all cases: 48 h
[1] = tested on: primary ALL patient cells (S088)
In short: (§1)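 Cells were incubated for 48 h at 37 °C and 5% CO2 in RPMI-1640 with penicillin/streptomycin, L-glutamine and human serum, at 4 × 10^4 cells per well in 384-well plates with compounds pre-plated at five concentrations, one well each. These were primary mononuclear tumour cells, fresh or cryopreserved, Ficoll-isolated from blood or bone marrow or obtained from processed lymph node. Viability values are CellTiter-Glo luminescence relative to the median of 16 inner DMSO wells.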

[2] = tested on: primary AML patient cells (S002)
In short: as §1

[3] = tested on: primary AML patient cells (S007)
In short: as §1

[4] = tested on: primary AML patient cells (S011)
In short: as §1

[5] = tested on: primary AML patient cells (S017)
In short: as §1

[6] = tested on: primary AML patient cells (S019)
In short: as §1

[7] = tested on: primary AML patient cells (S021)
In short: as §1

[8] = tested on: primary AML patient cells (S060)
In short: as §1

[9] = tested on: primary AML patient cells (S071)
In short: as §1

[10] = tested on: primary AML patient cells (S081)
In short: as §1

[11] = tested on: primary AML patient cells (S085)
In short: as §1

[12] = tested on: primary B-PLL patient cells (S016)
In short: as §1

[13] = tested on: primary BL patient cells (S005)
In short: as §1

[14] = tested on: primary CLL patient cells (S043)
In short: as §1

[15] = tested on: primary DLBCL patient cells (S049)
In short: as §1

[16] = tested on: primary DLBCL patient cells (S076)
In short: as §1

[17] = tested on: primary T-NHL patient cells (S058)
In short: as §1

With O=C(Nc1nc2ccccc2n1CCN1CCOCC1)c1cccc([N+](=O)[O-])c1 [IRAK-1/4 INHIBITOR I] the viability ([1]; 0.016 µM) was 0.747, the viability ([1]; 0.08 µM) was 0.862 and the viability ([1]; 0.4 µM) was 0.856. It also gave a viability ([1]; 2 µM) of 0.826, a viability ([1]; 10 µM) of 0.941 and a viability ([2]; 0.016 µM) of 0.955. For the same compound, the viability ([2]; 0.08 µM) was 1.05, the viability ([2]; 0.4 µM) was 0.901 and the viability ([2]; 2 µM) was 0.953. For the same compound, the viability ([2]; 10 µM) was 1.03, the viability ([3]; 0.016 µM) was 1.01 and the viability ([3]; 0.08 µM) was 0.989. For the same compound, the viability ([3]; 0.4 µM) was 0.788, the viability ([3]; 2 µM) was 0.469 and the viability ([3]; 10 µM) was 0.292. For the same compound, the viability ([4]; 0.016 µM) was 0.949, the viability ([4]; 0.08 µM) was 0.934 and the viability ([4]; 0.4 µM) was 0.972. The viability ([4]; 2 µM) was 1.11, the viability ([4]; 10 µM) was 0.878 and the viability ([5]; 0.016 µM) was 0.904. The viability ([5]; 0.08 µM) was 0.962, the viability ([5]; 0.4 µM) was 0.889 and the viability ([5]; 2 µM) was 0.932. The viability ([5]; 10 µM) was 0.937, the viability ([6]; 0.016 µM) was 0.915 and the viability ([6]; 0.08 µM) was 1.04. It also gave a viability ([6]; 0.4 µM) of 0.913, a viability ([6]; 2 µM) of 0.867 and a viability ([6]; 10 µM) of 0.909. The viability ([7]; 0.016 µM) was 0.924, the viability ([7]; 0.08 µM) was 0.954 and the viability ([7]; 0.4 µM) was 0.907. It also gave a viability ([7]; 2 µM) of 0.735, a viability ([7]; 10 µM) of 0.819 and a viability ([8]; 0.016 µM) of 0.973. For the same compound, the viability ([8]; 0.08 µM) was 1, the viability ([8]; 0.4 µM) was 0.974 and the viability ([8]; 2 µM) was 1. For the same compound, the viability ([8]; 10 µM) was 1.02, the viability ([9]; 0.016 µM) was 0.925 and the viability ([9]; 0.08 µM) was 0.918. It also gave a viability ([9]; 0.4 µM) of 0.815, a viability ([9]; 2 µM) of 0.783 and a viability ([9]; 10 µM) of 0.636. It also gave a viability ([10]; 0.016 µM) of 0.864, a viability ([10]; 0.08 µM) of 0.93 and a viability ([10]; 0.4 µM) of 0.907. For the same compound, the viability ([10]; 2 µM) was 0.93, the viability ([10]; 10 µM) was 0.915 and the viability ([11]; 0.016 µM) was 0.957. It also gave a viability ([11]; 0.08 µM) of 0.985, a viability ([11]; 0.4 µM) of 1.05 and a viability ([11]; 2 µM) of 1.04. The viability ([11]; 10 µM) was 1.02, the viability ([12]; 0.016 µM) was 0.968 and the viability ([12]; 0.08 µM) was 1.05. For the same compound, the viability ([12]; 0.4 µM) was 0.969, the viability ([12]; 2 µM) was 0.937 and the viability ([12]; 10 µM) was 1.04. For the same compound, the viability ([13]; 0.016 µM) was 1.02, the viability ([13]; 0.08 µM) was 1.09 and the viability ([13]; 0.4 µM) was 1.04. The viability ([13]; 2 µM) was 0.984, the viability ([13]; 10 µM) was 1.09 and the viability ([14]; 0.016 µM) was 0.825. It also gave a viability ([14]; 0.08 µM) of 0.885, a viability ([14]; 0.4 µM) of 0.838 and a viability ([14]; 2 µM) of 0.845. For the same compound, the viability ([14]; 10 µM) was 0.861, the viability ([15]; 0.016 µM) was 0.936 and the viability ([15]; 0.08 µM) was 0.955. The viability ([15]; 0.4 µM) was 0.834, the viability ([15]; 2 µM) was 0.833 and the viability ([15]; 10 µM) was 0.821. It also gave a viability ([16]; 0.016 µM) of 0.94, a viability ([16]; 0.08 µM) of 1.09 and a viability ([16]; 0.4 µM) of 1.01. The viability ([16]; 2 µM) was 1, the viability ([16]; 10 µM) was 1.11 and the viability ([17]; 0.016 µM) was 1.05. The viability ([17]; 0.08 µM) was 1.25, the viability ([17]; 0.4 µM) was 1.02 and the viability ([17]; 2 µM) was 1.07. It also gave a viability ([17]; 10 µM) of 1.27.
